Assays:
A549-ACE2 [1] = experiment: drug-induced phospholipidosis relative to tamoxifen; higher = more phospholipidosis
A549-ACE2 [2] = experiment: phospholipidosis EC50; higher = less potent phospholipidosis inducer
[3] = system: A549-ACE2 infected with SARS-CoV-2; experiment: cell count relative to DMSO; higher = less toxic; conditions: 24 h
Vero E6 [4] = experiment: relative viability EC50 (midpoint between 100% and the lowest measured viability); higher = less toxic; conditions: 72 h
U2OS [5] = experiment: as above; conditions: 72 h
Calu-3 [6] = experiment: as above; conditions: 72 h
Caco-2 [7] = experiment: drug sensitivity score (DSS) for viability; higher = more toxic; extreme values may be limits of the assay; conditions: 72 h
Vero E6 [8] = experiment: as above; conditions: 72 h
HepG2 [9] = experiment: as above; conditions: 72 h
U2OS [10] = experiment: as above; conditions: 72 h
Calu-3 [11] = experiment: as above; conditions: 72 h
[12] = system: A549-ACE2 infected with SARS-CoV-2; experiment: SARS-CoV-2 infection rate relative to DMSO; higher = more infection; conditions: 24 h
Caco-2 [13] = experiment: cell viability relative to DMSO; higher = less toxic; conditions: 72 h
Vero E6 [14] = experiment: as above; conditions: 72 h
HepG2 [15] = experiment: as above; conditions: 72 h
U2OS [16] = experiment: as above; conditions: 72 h
Calu-3 [17] = experiment: as above; conditions: 72 h
[18] = system: A549-ACE2 infected with SARS-CoV-2; experiment: morphology score (similarity to uninfected cells); higher = more like uninfected cells; conditions: 24 h
Caco-2 [19] = experiment: relative viability EC50 (midpoint between 100% and the lowest measured viability); higher = less toxic; conditions: 72 h

C[C@@H](O[C@H]1OCCN(Cc2nn[nH]c2CN(C)C)[C@H]1c1ccc(F)cc1)c1cc(C(F)(F)F)cc(C(F)(F)F)c1
drug-induced phospholipidosis [%], A549-ACE2 [1]
Conditions	0.3 µM	0.833333 µM	3.33333 µM	6.66667 µM	10 µM
24 h	0.77	3.06	53.9	92.5	102
48 h	1.56	0.335	38.1	83.7	91.7
72 h	2.71	0.0731	32.7	80.6	99.1

Conditions	SARS-CoV-2 infection rate [%]	cell count [%]	cell viability [%]	morphology score	phospholipidosis EC50 [µM]
A549-ACE2 [2], 24 h	–	–	–	–	3.41
A549-ACE2 [2], 48 h	–	–	–	–	3.74
A549-ACE2 [2], 72 h	–	–	–	–	4.73
Caco-2 [13], 1 nM	–	–	97	–	–
Caco-2 [13], 10 nM	–	–	94.6	–	–
Caco-2 [13], 100 nM	–	–	99.9	–	–
Caco-2 [13], 1000 nM	–	–	103	–	–
Caco-2 [13], 10000 nM	–	–	70.7	–	–
Calu-3 [17], 1 nM	–	–	93.6	–	–
Calu-3 [17], 10 nM	–	–	93.9	–	–
Calu-3 [17], 100 nM	–	–	91.8	–	–
Calu-3 [17], 1000 nM	–	–	97.5	–	–
Calu-3 [17], 10000 nM	–	–	75.1	–	–
HepG2 [15], 1 nM	–	–	90.8	–	–
HepG2 [15], 10 nM	–	–	91.5	–	–
HepG2 [15], 100 nM	–	–	87.5	–	–
HepG2 [15], 1000 nM	–	–	110	–	–
HepG2 [15], 10000 nM	–	–	69.1	–	–
U2OS [16], 1 nM	–	–	98.8	–	–
U2OS [16], 10 nM	–	–	96.9	–	–
U2OS [16], 100 nM	–	–	105	–	–
U2OS [16], 1000 nM	–	–	98.6	–	–
U2OS [16], 10000 nM	–	–	75.9	–	–
Vero E6 [14], 1 nM	–	–	91	–	–
Vero E6 [14], 10 nM	–	–	102	–	–
Vero E6 [14], 100 nM	–	–	95	–	–
Vero E6 [14], 1000 nM	–	–	96.9	–	–
Vero E6 [14], 10000 nM	–	–	82.8	–	–
[3], 0.3 µM	–	104	–	–	–
[3], 3 µM	–	107	–	–	–
[3], 10 µM	–	114	–	–	–
[3], 30 µM	–	96	–	–	–
[12], 0.3 µM	94	–	–	–	–
[12], 3 µM	67	–	–	–	–
[12], 10 µM	21	–	–	–	–
[12], 30 µM	29	–	–	–	–
[18], 0.3 µM	–	–	–	0.33	–
[18], 3 µM	–	–	–	0.54	–
[18], 10 µM	–	–	–	0.79	–
[18], 30 µM	–	–	–	0.29	–

Conditions	drug sensitivity score	relative viability EC50 [µM]
Caco-2 [7]	1.1	–
Calu-3 [6]	–	> 10
Calu-3 [11]	1.3	–
HepG2 [9]	0.9	–
U2OS [5]	–	> 10
U2OS [10]	1.1	–
Vero E6 [4]	–	> 10
Vero E6 [8]	0.7	–

CCN1CCN(c2ccc(C(C)(C)NC(=O)c3cc4[nH]c5ccccc5c(=O)c4cc3F)cn2)CC1
drug-induced phospholipidosis [%], A549-ACE2 [1]
Conditions	0.3 µM	0.833333 µM	3.33333 µM	6.66667 µM	10 µM	30 µM
24 h	6.26	-2.09	-3.71	11.8	31.3	80.5
48 h	4.42	0.5	–	–	–	67.5
72 h	12.4	4.2	–	–	–	–

Conditions	SARS-CoV-2 infection rate [%]	cell count [%]	cell viability [%]	morphology score	phospholipidosis EC50 [µM]
A549-ACE2 [2], 24 h	–	–	–	–	11.6
Caco-2 [13], 1 nM	–	–	102	–	–
Caco-2 [13], 10 nM	–	–	105	–	–
Caco-2 [13], 100 nM	–	–	107	–	–
Caco-2 [13], 1000 nM	–	–	116	–	–
Caco-2 [13], 10000 nM	–	–	86.5	–	–
Calu-3 [17], 1 nM	–	–	96.4	–	–
Calu-3 [17], 10 nM	–	–	87.8	–	–
Calu-3 [17], 100 nM	–	–	92.7	–	–
Calu-3 [17], 1000 nM	–	–	76.7	–	–
Calu-3 [17], 10000 nM	–	–	43.3	–	–
HepG2 [15], 1 nM	–	–	95.7	–	–
HepG2 [15], 10 nM	–	–	104	–	–
HepG2 [15], 100 nM	–	–	103	–	–
HepG2 [15], 1000 nM	–	–	77	–	–
HepG2 [15], 10000 nM	–	–	52.9	–	–
U2OS [16], 1 nM	–	–	99.3	–	–
U2OS [16], 10 nM	–	–	96.5	–	–
U2OS [16], 100 nM	–	–	94.2	–	–
U2OS [16], 1000 nM	–	–	105	–	–
U2OS [16], 10000 nM	–	–	25.5	–	–
Vero E6 [14], 1 nM	–	–	109	–	–
Vero E6 [14], 10 nM	–	–	102	–	–
Vero E6 [14], 100 nM	–	–	102	–	–
Vero E6 [14], 1000 nM	–	–	97.2	–	–
Vero E6 [14], 10000 nM	–	–	92	–	–
[3], 0.3 µM	–	102	–	–	–
[3], 3 µM	–	93	–	–	–
[3], 10 µM	–	97	–	–	–
[3], 30 µM	–	72	–	–	–
[12], 0.3 µM	92	–	–	–	–
[12], 3 µM	34	–	–	–	–
[12], 10 µM	11	–	–	–	–
[12], 30 µM	25	–	–	–	–
[18], 0.3 µM	–	–	–	0.33	–
[18], 3 µM	–	–	–	0.74	–
[18], 10 µM	–	–	–	0.74	–
[18], 30 µM	–	–	–	0.53	–

Conditions	drug sensitivity score	relative viability EC50 [µM]
Caco-2 [7]	0	–
Caco-2 [19]	–	> 10
Calu-3 [6]	–	1.18
Calu-3 [11]	5.6	–
HepG2 [9]	5.4	–
U2OS [5]	–	3.53
U2OS [10]	3.7	–
Vero E6 [4]	–	> 10
Vero E6 [8]	0	–
